Source: ChEMBL document CHEMBL3600358, “Design and synthesis of novel substituted naphthyridines as potential c-Met kinase inhibitors based on MK-2461” (Bioorg Med Chem Lett, 2015)

What was measured:
HeLa [1] = experiment: Antiproliferative activity against human HeLa cells incubated for 48 hrs by MTT assay; format: functional, cell-based
A549 = experiment: Antiproliferative activity against human A549 cells incubated for 48 hrs by MTT assay; format: functional, cell-based; conditions: A549, 48 h
HeLa [2] = experiment: Effect on total c-Met protein level in human HeLa cells at 1.25 to 20 uM incubated for 24 hrs by Western blot method; format: cell-based

Compound | IC50 (HeLa [1]) [µM] | IC50 (A549) [µM] | Activity (HeLa [2])
CC(=O)Nc1nccc2ncc(-c3cnn(C)c3)cc12 | > 50 | > 50 | 
Cn1cc(-c2cnc3ccc(N)nc3c2)cn1 | > 50 | > 50 | 
Cc1ccc(S(=O)(=O)Nc2ccc3ncc(-c4cnn(C)c4)cc3n2)cc1 | > 50 | 45.5 | 
CCNc1ccc2ncc(-c3cnn(C)c3)cc2n1 | > 50 | > 50 | 
Cn1cc(-c2cnc3ccc(NC(=O)c4cccnc4)nc3c2)cn1 | > 50 | > 50 | 
Cn1cc(-c2cnc3ccc(NS(=O)(=O)c4ccc(C(F)(F)F)cc4)nc3c2)cn1 | > 50 | > 50 | 
Cn1cc(-c2cnc3ccnc(NC(=O)c4ccc(F)cc4)c3c2)cn1 | > 50 | > 50 | 
Cn1cc(-c2cnc3ccnc(NS(=O)(=O)c4ccc(C(F)(F)F)cc4)c3c2)cn1 | > 50 | > 50 | 
Cn1cc(-c2cnc3ccnc(NC(=O)c4cccnc4)c3c2)cn1 | > 50 | > 50 | 
Cn1cc(-c2cnc3ccc(NC(=O)c4ccc(F)cc4)nc3c2)cn1 | > 50 | > 50 | 
COc1ccc(C(=O)Nc2nccc3ncc(-c4cnn(C)c4)cc23)cc1 | > 50 | > 50 | 

The next lines start with results.

IC50 (HeLa [1]) [µM] | IC50 (A549) [µM] | Compound | Activity (HeLa [2])
> 50 | > 50 | Cn1cc(-c2cnc3ccnc(NS(=O)(=O)c4c(Cl)cccc4Cl)c3c2)cn1 | 
40.8 | 33.4 | Cn1cc(-c2cnc3ccnc(N)c3c2)cn1 | 
> 50 | > 50 | COc1ccc(CNc2ccc3ncc(-c4cnn(C)c4)cc3n2)cc1 | 
4.9 | 6.4 | COc1ccc(C(=O)Nc2ccc3ncc(-c4cnn(C)c4)cc3n2)cc1 | 
> 50 | > 50 | Cn1cc(-c2cnc3ccc(NCC4CC4)nc3c2)cn1 | 
> 50 | > 50 | Cc1ccc(S(=O)(=O)Nc2nccc3ncc(-c4cnn(C)c4)cc23)cc1 | 
46.6 | > 50 | Cn1cc(-c2cnc3ccc(NCc4ccc(F)cc4)nc3c2)cn1 | 
> 50 | > 50 | Cn1cc(-c2cnc3ccc(NS(=O)(=O)c4ccc(Cl)cc4Cl)nc3c2)cn1 | 
> 50 | > 50 | CC(=O)Nc1ccc2ncc(-c3cnn(C)c3)cc2n1 | 
> 50 | > 50 | Cn1cc(-c2cnc3ccc(NC(=O)C4CC4)nc3c2)cn1 | 
> 50 | 40.7 | CCNc1nccc2ncc(-c3cnn(C)c3)cc12 | 
9.2 | 5.2 | Cn1cc(-c2cnc3ccnc(NCc4ccc(F)cc4)c3c2)cn1 | Non-toxic
> 50 | > 50 | Cn1cc(-c2cnc3ccnc(NC(=O)C4CC4)c3c2)cn1 | 
38.4 | 39.5 | Cn1cc(-c2cnc3ccc(NS(=O)(=O)c4cccs4)nc3c2)cn1 | 
7.4 | 8.9 | Cn1cc(-c2cnc3ccnc(NCC4CC4)c3c2)cn1 | 
17.4 | 9.4 | Cn1cc(-c2cnc3ccnc(NS(=O)(=O)c4cccs4)c3c2)cn1 | 
42.2 | > 50 | COc1ccc(CNc2nccc3ncc(-c4cnn(C)c4)cc23)cc1 | 
